Read-outs that look alike come from different tables or passages of the source. Ends that are not written are not given here.
Assays:
USP20 DUSP2 domain [1] = molecular target: T1, USP20 DUSP2 domain (Homo sapiens, UniProt Q9Y2K6); test: FP-monitored affinity measurements, USP20 DUSP2; format: binding
T1 construct: USP20_DUSP2; Q9Y2K6; DUSP2; 776; 894; 6xHis-GST (N, cleaved yes); made in house; host or cells: Escherichia coli BL21-Gold (DE3)
Description: (§1) Proteins were expressed in Escherichia coli (E.coli) BL21-Gold (DE3) bacteria. The cDNAs encoding N-terminal 6-histidine-glutathione S-transferase tagged (6xHis-GST), 6xHis-tagged or GST-tagged protein domains in pETM33, pETM11, pGEX6P1 expression vectors respectively, were obtained from Genescript or kindly provided by MRC-PPU (Suppl. Data 1) The bacteria were transformed with the plasmid and grew at 37 °C in 2YT (5 g/L NaCl, 16 g/L tryptone and 10 g/L yeast extract) supplemented with Kanamycin (30 μg/mL) until reaching an OD600 of 0.7. Protein expression was induced with 0.3 mM isopropyl β-D-1 thiogalactopyranoside (IPTG) for 18 h at 18 °C while shaking. For zinc-finger domains, 50 μM of ZnSO4 was added during expression. The bacterial cultures were pelleted for 15 minutes at 4000 x g at 4 °C and stored at −20 °C until purification. The pellets were resuspended in lysis buffer (1× phosphate-buffered saline (PBS), 0.5 % Triton-X, 5 mM MgCl2, 10 μg/mL lysozyme, cOmplete^TM EDTA-free protease inhibitor cocktail (Roche), 10 μg/mL DNAseI) and incubated for 1 h shaking at 4 °C. […] The supernatant was incubated with glutathione (GSH) Sepharose (Cytiva) or Ni2+ Sepharose (Cytiva) for 1 h at 4 °C while shaking. The beads with the bound protein were washed with 1x PBS and eluted with 10 mM reduced glutathione in 50 mM Tris pH 8.0. For fluorescence polarization experiments, the proteins were not eluted from the beads, and the 6xHis-GST tag was cleaved overnight on GSH Sepharose beads at 4 °C while shaking with PreScission Protease in cleavage buffer (50 mM Tris pH 7.5, 150 mM NaCl, 1 mM DTT). The sample containing the cleaved domain was separated from the tag and protease and buffer-exchanged to 50 mM sodium phosphate buffer pH 7.4 with 1 mM DTT using a PD-10 desalting column (Cytiva). The purity and size of the proteins were analyzed by SDS-PAGE electrophoresis.
(§2) The measurements were performed at room temperature in a non-binding black half area 96-well plate (Corning) with a total volume of 50 μL per well. Peptides were obtained from GeneCust (France) with >95% purity. FITC-labeled peptides (N-terminally FITC-labeled without spacer and C-terminally amidated) were dissolved in dimethyl sulfoxide (DMSO), and unlabeled peptides (N-terminally acetylated and C-terminally amidated) were dissolved in 50 mM phosphate buffer pH 7.4. Saturation measurements were performed using a serial dilution of the protein domains in phosphate buffer (25 μL) and the addition of 10 nM FITC-labeled peptide (in phosphate buffer supplemented with 2 mM DTT) (25 μL). […] All measurements were performed in three technical replicates. The data were analyzed using GraphPad Prism version 9.2.0 for MacOS (GraphPad Software, San Diego, California USA, www.graphpad.com). The saturation curves were fitted to the quadratic equation, and the displacement curves were fitted to a sigmoidal dose-response equation as described previously.

USP33 DUSP2 domain [2] = molecular target: T2, USP33 DUSP2 domain (Homo sapiens, UniProt Q8TEY7); test: FP-monitored affinity measurements, USP33 DUSP2; format: binding; conditions: competitive FP: unlabeled peptide (N-acetylated, C-amidated) against protein with 10 nM FITC-labeled peptide; 50 mM phosphate pH 7.4, room temperature; technical triplicate; read-out: KD, USP33 DUSP2
T2 construct: USP33_DUSP2; Q8TEY7; DUSP2; 806; 921; 6xHis-GST (N, cleaved yes); made in house; host or cells: Escherichia coli BL21-Gold (DE3)
T2 sequence (Q8TEY7 with tags, fused parts or gaps): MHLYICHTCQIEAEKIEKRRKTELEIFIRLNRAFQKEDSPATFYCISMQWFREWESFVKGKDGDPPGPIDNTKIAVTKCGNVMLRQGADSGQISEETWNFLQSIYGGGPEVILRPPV
Description: as §1, §2

USP20 DUSP2 domain [3] = molecular target: T1, USP20 DUSP2 domain; test: Peptide SPOT array, USP20 DUSP2; format: binding; conditions: for Average: peptide SPOT array intensity minus background, mean of 2 replicas; for Average / Normalize to peptide with higher intensity %: sheet S5A; for Normalize to higher intensity (%) / Normalize to peptide with higher intensity %: peptide SPOT array; for Normalize to higher intensity (%): USP20 DUSP2, average normalised to the highest intensity (ARNTL2 = 100); for Normalize to peptide with higher intensity %: average normalized to the peptide with highest intensity (ARNTL2 = 100);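 for all read-outs here: GST-tagged domain probed overnight at 4 °C on peptides made on cellulose membranes, bound protein detected via HRP-coupled anti-GST antibody, spot intensity from image analysis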
Description: (§3) Peptides were synthesized on cellulose membranes with standard Fluoroenylmethylox-ycarbonyl (Fmoc) chemistry using a Multipep automated synthesizer at INTAVIS (Tübingen, Germany) or ordered from JPT (PepSpots). The membranes were activated with methanol for 5 min and washed three times for 5 min with TBST (50 mM Tris, 137 mM NaCl, 2.7 mM KCl, pH 8.0, 0.05% Tween-20). The membranes were incubated with blocking buffer (5% skim milk powder in TBST) for 2 h at room temperature while shaking. The membranes were incubated with the GST-tagged protein diluted at the desired concentration in blocking buffer and incubated overnight at 4 °C while shaking. The membrane was rinsed 3 times with TBST and incubated with HRP-conjugated anti-GST antibody (Cytiva, RPN1236; 1:3000 dilution) in blocking buffer for 1 h at 4 °C while shaking. […] The images were analyzed in Fiji (ImageJ2 version 2.9.0).

USP33 DUSP2 domain [4] = molecular target: T2, USP33 DUSP2 domain; test: Peptide SPOT array, USP33 DUSP2; format: binding; conditions: average normalised to the highest intensity (CCDC88B = 100)
Description: as §3

[5] = system: USP auxiliary domains and full-length CYLD and USP7 (baits); test: ProP-PD selections against the HD2 library; format: binding, human; conditions: for mean_counts_% / specificity: ProP-PD peptide level
Description: We generated a collection of 29 USP ADs and two full-length USPs (CYLD and USP7). The collection was biased towards domains that are present in several USPs, such as zf-UBP domains, UBL domains and DUSP domains (Suppl. Data 1). We also included ADs only found in specific USPs, such as the three CAP-Gly domains of CYLD and the C-terminal domain of USP25. […] The peptide-coding regions of the phage pools were analyzed by next-generation sequencing (NGS), mapped to the corresponding proteins, and filtered for high/medium confidence ligands based on established criteria (with confidence level 4 being the highest).
as §1
The human disorderome library was used for four rounds of phage display selections. GST-tagged, 6xHis-tagged or GST-6xHis purified proteins were used as baits and GST was used as control by immobilization on a 96-well MaxiSorp plate (Nunc) overnight at 4 °C while shaking (10 μg of protein in 100 μL PBS). The wells containing the immobilized proteins were blocked with 0.5% BSA in PBS for 1 hour at 4 °C while shaking. The phage library was prepared by precipitation in 1/5th volume PEG/NaCl (20% PEG-8000 + 0.4 M NaCl), incubated for 10 min on ice, followed by centrifugation at 10,000 × g for 10 min at 4 °C and resuspended in PBS. The GST-coated wells were washed four times with 0.05% Tween 20 in PBS, and 100 μL/well phage library was added and incubated 1 h at 4 °C while shaking. The protein-coated wells were washed four times with 0.05% Tween 20 in PBS, and the phage solution from the GST-coated wells was transferred to the protein-coated wells and incubated 2 h at 4 °C while shaking. The unbound phages were removed by washing 5 times with 0.05% Tween 20 in PBS, and the bound phages were eluted with 100 μL/well log-phase E.coli OmniMAX by incubating for 30 min at 37 °C while shaking. M13KO7 helper phages (10^11 PFU/mL) were added to each well and incubated for 45 min at 37 °C while shaking. […]

[6] = bait CYLD_CAP-Gly-2 (Q9NQC7 235-307)
[7] = bait CYLD_CAP-Gly-1 (Q9NQC7 8-210), collapsed regions of overlapping peptides
[8] = bait CYLD_CAP-Gly-2 (Q9NQC7 235-307), collapsed regions of overlapping peptides

T1 sequence (Q9Y2K6 with tags, fused parts or gaps): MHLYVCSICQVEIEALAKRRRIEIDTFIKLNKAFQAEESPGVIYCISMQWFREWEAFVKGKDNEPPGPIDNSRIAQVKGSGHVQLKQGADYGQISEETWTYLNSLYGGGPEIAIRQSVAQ

| Average (USP20 DUSP2 domain [3]) | Normalize to higher intensity (%) (USP20 DUSP2 domain [3]) | Normalize to peptide with higher intensity % (USP20 DUSP2 domain [3]) [%] | Normalize to higher intensity (%) (USP33 DUSP2 domain [4]) | Molecule | further results |
| --- | --- | --- | --- | --- | --- |
| -16.4483 | -9.211 | -9.211 | 68.6966 | EAGLALRTDLQGEAQI [ZNF783] |  |
| 27.0767 | 15.16 | 15.1621 | 19.7113 | GGLTDLSSLIQAGQQF [SGTB] |  |
| 72.2767 | 40.47 | 40.4726 | 49.982 | KGHSRDFVLRRDLSAT [ZIC5] |  |
| 138.987 | 77.83 | 77.8281 | 61.0297 | KMGSDEFDISPRISKQ [MGA] |  |
| 44.4667 | 24.9 | 24.8999 | 27.858 | LRHPSGWWLVENEDRQ [NOXO1] |  |
| -8.778 | -4.916 | -4.916 | -0.2743 | MNFNVWNIKEMLSIPS [IHO1] |  |
| 7.792 | 4.363 | 4.363 | 22.3834 | NGLDIAPRYFGFIKAC [SLC17A1] |  |
| 40.0217 | 22.41 | 22.4108 | 25.9612 | QPIDNSFDIQSRDCIS [MAP3K4] |  |
| -28.3983 | -15.9 | -15.9022 | -36.2833 | VKHPRFFALFEKHGGY [PPIP5K1] |  |

More lines, now with the values behind:

| Molecule | Average (USP20 DUSP2 domain [3]) | Normalize to higher intensity (%) (USP20 DUSP2 domain [3]) | Normalize to peptide with higher intensity % (USP20 DUSP2 domain [3]) [%] | Normalize to higher intensity (%) (USP33 DUSP2 domain [4]) | further results |
| --- | --- | --- | --- | --- | --- |
| CC[C@H](C)[C@H](NC(=O)[C@H](Cc1ccc(O)cc1)NC(=O)[C@@H]1CCCN1)C(=O)N1CCC[C@H]1C(=O)N[C@@H](CCSC)C(=O)N[C@@H](CC(=O)O)C(=O)N[C@@H](CC(=O)O)C(=O)N[C@@H](CC(=O)O)C(=O)N[C@@H](C)C(=O)N[C@@H](CCC(N)=O)C(=O)N[C@@H](CC(C)C)C(=O)N[C@@H](CCCNC(=N)N)C(=O)N[C@@H](CO)C(=O)N[C@@H](Cc1ccccc1)C(=O)N[C@@H](CC(=O)O)C(=O)N[C@@H](CCC(N)=O)C(=O)N[C@@H](CC(C)C)C(=O)N[C@@H](CO)C(=O)O [F572A] |  |  |  |  | Kd (USP20 DUSP2 domain [1]; competitive FP: unlabeled peptide (N-acetylated, C-amidated) against protein with 10 nM FITC-labeled peptide, 50 mM phosphate pH 7.4, room temperature, technical triplicate, read-out: KD, USP20 DUSP2): > 600 µM; Kd (USP33 DUSP2 domain [2]): > 900 µM |
| CC[C@H](C)[C@H](NC(=O)[C@H](Cc1ccc(O)cc1)NC(=O)[C@@H]1C[C@@H](O)CN1C(C)=O)C(=O)N1CCC[C@H]1C(=O)N[C@@H](CCSC)C(=O)N[C@@H](CC(=O)O)C(=O)N[C@@H](CC(=O)O)C(=O)N[C@@H](CC(=O)O)C(=O)N[C@@H](Cc1ccccc1)C(=O)N[C@@H](CCC(N)=O)C(=O)N[C@@H](CC(C)C)C(=O)N[C@@H](CCCNC(=N)N)C(=O)N[C@@H](CO)C(=O)N[C@@H](Cc1ccccc1)C(=O)N[C@@H](CC(=O)O)C(=O)N[C@@H](CCC(N)=O)C(=O)N[C@@H](CC(C)C)C(=O)N[C@@H](CO)C(N)=O [HyPro-HIF1A564-581] |  |  |  |  | Kd (USP33 DUSP2 domain [2]): 7 µM |
| ATLATAWSLVEAAGLD [BAHCC1_2] | -15.5033 | -8.681 | -8.681 | -24.9243 |  |
| Ac-PYIPMDKDFQLRSFDQLS-NH2 [D570K] |  |  |  |  | Kd (USP33 DUSP2 domain [2]): 10 µM |
| Ac-PYIPMDKDFQLRSFDQLS-NH2 [HIF1A_D570K] |  |  |  |  | Kd (USP20 DUSP2 domain [1]; USP20_DUSP2, FP displacement by unlabelled peptide, read-out: KD): 18.8 µM |
| DLLSVAEMVALVEQRA [FBXO46_168-183] |  |  |  |  | mean_counts_% [5, 6]: 16.99%; specificity [5, 6]: 1.00 |
| EEDVLAFNLQHLATLA [BAHCC1_1] | -22.4783 | -12.59 | -12.5871 | 29.5039 |  |
| EGTEVAFPLLVSHRSQ [EMSY] | -0.4433 | -0.2483 | -0.2483 | 1.956 |  |
| EKEDSCFELLHRAVGH [ASB8] | -31.4033 | -17.58 | -17.5849 | 10.516 |  |
| KEQLSSFDISPREKLI [ARNTL2] | 178.582 | 100 | 100 | 36.7483 |  |
| PDAELQRMEQEAERRR [RBM25_558-573] |  |  |  |  | specificity ([5]; bait CYLD_CAP-Gly-1 (Q9NQC7 8-210)): 0.95; max_confidence [5, 7]: 2; max_specificity [5, 7]: 0.95 |
| PYIPMDDDFQARSFDQLS [L574A] |  |  |  |  | Kd (USP33 DUSP2 domain [2]): > 200 µM |
| RLQKDIWDIQMRSKSL [GBP2] | 51.5267 | 28.85 | 28.8533 | 42.7122 |  |
| SQQDAQEFLRALMDLL |  |  |  |  | mean_counts_% [5, 6]: 30.84%; specificity [5, 6]: 0.87; max_specificity [5, 8]: 0.87 |
| TWWDRYEEFVGLNEVR |  |  |  |  | mean_counts_% [5, 6]: 3.88%; specificity [5, 6]: 0.28; max_specificity [5, 8]: 0.28 |
| VAEMVALVEQRA |  |  |  |  | max_specificity [5, 8]: 1.00 |
| VAEMVALVEQRAALAL |  |  |  |  | mean_counts_% [5, 6]: 0.0147%; specificity [5, 6]: 0.48 |
| WRFEQLEWRSILLDMA |  |  |  |  | max_specificity [5, 8]: 0.60 |

Reference: PMC13376213, “Systematic discovery of motif-based interactions of the auxiliary domains of USP family deubiquitinases” (Nature Communications, 2026)
